What was measured:
human CB1 receptor [1] = molecular target: T1, human CB1 receptor (Homo sapiens, UniProt P21554); assay: bioSensAll β-arrestin2 plasma membrane translocation (+GRK2) BRET biosensor assay in HEK293 cells transfected with hCB1; test compound added before EC75-80 of agonist CP55,940 (100 nM); type: cell-based; details: βArrestin2 (+GRK2) BRET biosensor, vs CP55,940 100 nM (EC75-80), read-out: CB1 wt βarr2 IC50
T1 construct: expressed in transfected cells; host or cells: HEK293
Procedure, shortened: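 Antagonist mode: compound at 12 concentrations up to 600 nM, then 100 nM CP55,940 3–5 min later, on hCB1-transfected HEK293 cells carrying the β-arrestin2 plasma-membrane biosensor plus GRK2. After overnight 37 °C incubation, 515/400 nm BRET ratio measured with 2 µM methoxy e-CTZ and standardized against positive/negative controls.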

human CB1 receptor [2] = molecular target: T1, human CB1 receptor; assay: bioSensAll GAPL-Gi2 BRET biosensor assay in HEK293 cells transfected with hCB1; test compound added before EC75-80 of agonist CP55,940 (0.1 nM); type: cell-based; details: vs CP55,940 0.1 nM (EC75-80), read-out: CB1 wt Gi2 IC50
Procedure, shortened: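 Test compounds at 12 doses up to 600 nM preceded a 0.1 nM CP55,940 challenge in hCB1/GAPL-Gi2 HEK293 cells. After overnight 37° C incubation, methoxy e-coelenterazine (2 µM final) was added and the 515/400 nm BRET ratio normalized to positive and negative controls.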

T1 sequence (P21554 whole entry): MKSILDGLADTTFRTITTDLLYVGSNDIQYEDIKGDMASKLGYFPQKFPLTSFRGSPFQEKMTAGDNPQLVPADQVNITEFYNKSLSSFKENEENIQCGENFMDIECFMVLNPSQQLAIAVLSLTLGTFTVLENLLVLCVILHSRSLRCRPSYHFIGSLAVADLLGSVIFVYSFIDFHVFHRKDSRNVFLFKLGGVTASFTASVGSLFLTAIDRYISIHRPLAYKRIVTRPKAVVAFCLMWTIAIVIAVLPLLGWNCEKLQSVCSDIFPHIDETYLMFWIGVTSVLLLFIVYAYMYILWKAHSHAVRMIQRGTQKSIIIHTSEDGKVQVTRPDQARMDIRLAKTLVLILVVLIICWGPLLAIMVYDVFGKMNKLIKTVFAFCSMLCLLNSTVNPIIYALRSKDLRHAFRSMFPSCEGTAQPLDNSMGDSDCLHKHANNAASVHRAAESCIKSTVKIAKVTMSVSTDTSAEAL

SMILES	IC50 (human CB1 receptor [1])	IC50 (human CB1 receptor [2])
CC1(C(N)=O)CCN(c2nc(-c3cnc[nH]3)nc3c2nc(-c2ccccc2Cl)n3-c2ccc(Cl)cc2)CC1 [Compound 45]	39.9 nM	5.85 nM
CN(CCO)c1nc(N2CCC(C)(C(N)=O)CC2)c2nc(-c3ncccc3F)n(-c3ccc(Cl)cc3)c2n1 [Compound 50, 1-[9-(4-chlorophenyl)-8-(3-fluoro-2-pyridyl)-2-[2-hydroxyethyl(methyl)amino]purin-6-yl]-4-methyl-piperidine-4-carboxamide]	47.8 nM	8.41 nM
Cc1cccnc1-c1nc2c(N3CCC(C)(C(N)=O)CC3)nc(N(C)CCO)nc2n1-c1ccc(Cl)cc1 [Compound 51, 1-[9-(4-chlorophenyl)-2-[2-hydroxyethyl(methyl)amino]-8-(3-methyl-2-pyridyl)purin-6-yl]-4-methyl-piperidine-4-carboxamide]	64.3 nM	10.1 nM
CN(CCO)c1nc(N2CCC(C)(C(N)=O)CC2)c2nc(-c3ccncc3)n(-c3ccc(Cl)cc3)c2n1 [Compound 52, 1-[9-(4-chlorophenyl)-2-[2-hydroxyethyl(methyl)amino]-8-(4-pyridyl)purin-6-yl]-4-methyl-piperidine-4-carboxamide]	29.1 nM	2.06 nM
Cc1cn(C)c(-c2nc3c(N4CCC(C)(C(N)=O)CC4)nc(N(C)CCO)nc3n2-c2ccc(Cl)cc2)n1 [Compound 57, 1-[9-(4-chlorophenyl)-8-(1,4-dimethylimidazol-2-yl)-2-[2-hydroxyethyl(methyl)amino]purin-6-yl]-4-methyl-piperidine-4-carboxamide]	121 nM	41.2 nM
CN(CCO)c1nc(N2CCC(C)(C(N)=O)CC2)c2nc(-c3cncn3C)n(-c3ccc(Cl)cc3)c2n1 [Compound 58, 1-[9-(4-chlorophenyl)-2-[2-hydroxyethyl(methyl)amino]-8-(3-methylimidazol-4-yl)purin-6-yl]-4-methyl-piperidine-4-carboxamide]	515 nM	6.91 nM
CC(C)n1cncc1-c1nc2c(N3CCC(C)(C(N)=O)CC3)nc(N(C)CCO)nc2n1-c1ccc(Cl)cc1 [Compound 59, 1-[9-(4-chlorophenyl)-2-[2-hydroxyethyl(methyl)amino]-8-(3-isopropylimidazol-4-yl)purin-6-yl]-4-methyl-piperidine-4-carboxamide]	> 5000 nM	> 5000 nM
CN(CCO)c1nc(N2CCC(C)(C(N)=O)CC2)c2nc(-c3ccccn3)n(-c3ccc(Cl)cc3)c2n1 [Compound 63, 1-[9-(4-chlorophenyl)-2-[2-hydroxyethyl(methyl)amino]-8-(2-pyridyl)purin-6-yl]-4-methyl-piperidine-4-carboxamide]	65.1 nM	9.9 nM
CN(CCO)c1nc(N2CCC(C)(C(N)=O)CC2)c2nc(-c3ccc(C#N)cn3)n(-c3ccc(Cl)cc3)c2n1 [Compound 64, 1-[9-(4-chlorophenyl)-8-(5-cyano-2-pyridyl)-2-[2-hydroxyethyl(methyl)amino]purin-6-yl]-4-methyl-piperidine-4-carboxamide]	27.9 nM	2.45 nM
CCOC(=O)c1cn(-c2nc(N3CCC(C)(C(N)=O)CC3)c3nc(-c4ccccc4Cl)n(-c4ccc(Cl)cc4)c3n2)cn1 [Compound 69, ethyl 1-[6-(4-carbamoyl-4-methyl-1-piperidyl)-8-(2-chlorophenyl)-9-(4-chlorophenyl)purin-2-yl]imidazole-4-carboxylate]	117 nM	41.9 nM
CN(CCO)c1nc(N2CC(C(N)=O)C2)c2nc(-c3ccccc3Cl)n(-c3ccc(Cl)cc3)c2n1 [Compound 72]	3.81 nM	1.1 nM
CN(CCO)c1nc(N2CC(C)(C(N)=O)C2)c2nc(-c3ccccc3Cl)n(-c3ccc(Cl)cc3)c2n1 [Compound 73]	1.77 nM	0.556 nM
CN(CCO)c1nc(N2CC(C)(O)C2)c2nc(-c3ccccc3Cl)n(-c3ccc(Cl)cc3)c2n1 [Compound 74]	3.02 nM	0.574 nM
CN(CCO)c1nc(N2CC(C)(C#N)C2)c2nc(-c3ccccc3Cl)n(-c3ccc(Cl)cc3)c2n1 [Compound 75]	0.834 nM	0.399 nM

Results, then the compound that gave them:

IC50 (human CB1 receptor [1])	IC50 (human CB1 receptor [2])	SMILES
9.64 nM	1.82 nM	CC1(C(N)=O)CCN(c2nc(-n3cnc(CO)c3)nc3c2nc(-c2ccccc2Cl)n3-c2ccc(Cl)cc2)CC1 [Compound 46, 1-[8-(2-chlorophenyl)-9-(4-chlorophenyl)-2-[4-(hydroxymethyl)imidazol-1-yl]purin-6-yl]-4-methyl-piperidine-4-carboxamide]
6.65 nM	1.87 nM	CC1(C(N)=O)CCN(c2nc(-n3cnc(CCO)c3)nc3c2nc(-c2ccccc2Cl)n3-c2ccc(Cl)cc2)CC1 [Compound 47, 1-[8-(2-chlorophenyl)-9-(4-chlorophenyl)-2-[4-(2-hydroxyethyl)imidazol-1-yl]purin-6-yl]-4-methyl-piperidine-4-carboxamide]
5.91 nM	1.2 nM	CN(CCO)c1nc(N2CCC(C)(C(N)=O)CC2)c2nc(-c3ccccc3)n(-c3ccc(Cl)cc3)c2n1 [Compound 48, 1-[9-(4-chlorophenyl)-2-[2-hydroxyethyl(methyl)amino]-8-phenyl-purin-6-yl]-4-methyl-piperidine-4-carboxamide]
19.3 nM	2.6 nM	CN(CCO)c1nc(N2CCC(C)(C(N)=O)CC2)c2nc(-c3ncccc3Cl)n(-c3ccc(Cl)cc3)c2n1 [Compound 49, 1-[9-(4-chlorophenyl)-8-(3-chloro-2-pyridyl)-2-[2-hydroxyethyl(methyl)amino]purin-6-yl]-4-methyl-piperidine-4-carboxamide]
13.1 nM	0.966 nM	CC(=O)NCCOc1nc(N2CCC(C(F)(F)F)CC2)c2nc(-c3ccccc3Cl)n(-c3ccc(Cl)cc3)c2n1 [Compound 53, N-[2-[8-(2-chlorophenyl)-9-(4-chlorophenyl)-6-[4-(trifluoromethyl)-1-piperidyl]purin-2-yl]oxyethyl]acetamide]
1.12 nM	0.427 nM	C[C@@H](O)CN(C)c1nc(N2CCC(C)(C(N)=O)CC2)c2nc(-c3ccccc3Cl)n(-c3ccc(Cl)cc3)c2n1 [Compound 54, 1-[8-(2-chlorophenyl)-9-(4-chlorophenyl)-2-[[(2R)-2-hydroxypropyl]-methyl-amino]purin-6-yl]-4-methyl-piperidine-4-carboxamide]
4.58 nM	0.647 nM	C[C@H](O)CN(C)c1nc(N2CCC(C)(C(N)=O)CC2)c2nc(-c3ccccc3Cl)n(-c3ccc(Cl)cc3)c2n1 [Compound 55, 1-[8-(2-chlorophenyl)-9-(4-chlorophenyl)-2-[[(2S)-2-hydroxypropyl]-methyl-amino]purin-6-yl]-4-methyl-piperidine-4-carboxamide]
5.41 nM	0.83 nM	CC1(C(N)=O)CCN(c2nc(NCCO)nc3c2nc(-c2ccccc2Cl)n3-c2ccc(Cl)cc2)CC1 [Compound 56, 1-[8-(2-chlorophenyl)-9-(4-chlorophenyl)-2-(2-hydroxyethylamino)purin-6-yl]-4-methyl-piperidine-4-carboxamide]
19.3 nM	6.96 nM	CC(C)(C)OC(=O)NCCOc1nc(N2CCC(C)(C(N)=O)CC2)c2nc(-c3ccccc3Cl)n(-c3ccc(Cl)cc3)c2n1 [Compound 60, tert-butyl N-[2-[6-(4-carbamoyl-4-methyl-1-piperidyl)-8-(2-chlorophenyl)-9-(4-chlorophenyl)purin-2-yl]oxyethyl]carbamate]
16.7 nM	0.645 nM	CC1(C(N)=O)CCN(c2nc(OCCNS(C)(=O)=O)nc3c2nc(-c2ccccc2Cl)n3-c2ccc(Cl)cc2)CC1 [Compound 61, 1-[8-(2-chlorophenyl)-9-(4-chlorophenyl)-2-[2-(methanesulfonamido)ethoxy]purin-6-yl]-4-methyl-piperidine-4-carboxamide]
7.62 nM	6.14 nM	FC(F)(F)C1CCN(c2nc(OCCNCc3ccccc3)nc3c2nc(-c2ccccc2Cl)n3-c2ccc(Cl)cc2)CC1 [Compound 62, N-benzyl-2-[8-(2-chlorophenyl)-9-(4-chlorophenyl)-6-[4-(trifluoromethyl)-1-piperidyl]purin-2-yl]oxy-ethanamine]
1.7 nM	0.534 nM	CN(CCO)c1nc(N2CCC(C)(C(N)=O)CC2)c2nc(-c3ccc(C#N)nc3)n(-c3ccc(Cl)cc3)c2n1 [Compound 65, 1-[9-(4-chlorophenyl)-8-(6-cyano-3-pyridyl)-2-[2-hydroxyethyl(methyl)amino]purin-6-yl]-4-methyl-piperidine-4-carboxamide]
1.45 nM	0.586 nM	C[C@@H](CO)N(C)c1nc(N2CCC(C)(C(N)=O)CC2)c2nc(-c3ccccc3Cl)n(-c3ccc(Cl)cc3)c2n1 [Compound 66, 1-[8-(2-chlorophenyl)-9-(4-chlorophenyl)-2-[[(1S)-2-hydroxy-1-methyl-ethyl]-methyl-amino]purin-6-yl]-4-methyl-piperidine-4-carboxamide]
4.38 nM	1.27 nM	C[C@H](CO)N(C)c1nc(N2CCC(C)(C(N)=O)CC2)c2nc(-c3ccccc3Cl)n(-c3ccc(Cl)cc3)c2n1 [Compound 67, 1-[8-(2-chlorophenyl)-9-(4-chlorophenyl)-2-[[(1R)-2-hydroxy-1-methyl-ethyl]-methyl-amino]purin-6-yl]-4-methyl-piperidine-4-carboxamide]
10.7 nM	1.69 nM	CC1(C(N)=O)CCN(c2nc(S(C)(=O)=O)nc3c2nc(-c2ccccc2Cl)n3-c2ccc(Cl)cc2)CC1 [Compound 68, 1-[8-(2-chlorophenyl)-9-(4-chlorophenyl)-2-methylsulfonyl-purin-6-yl]-4-methyl-piperidine-4-carboxamide]

From patent publication US20250333418A1, “PURINE COMPOUNDS, COMPOSITIONS COMPRISING THEM AND USES THEREOF” (Novo Nordisk A/S, priority 2022, published 2025)
